Laboratory results published in PubChem BioAssay (NCI).
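Protocol summary: plate cells (96-well), add compound at 5 concentrations, incubate 48 h, interpolate endpoints linearly. The concentration for full growth arrest is given as TGI.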

Legend:
Experiment in all cases: NCI tumour cell line growth inhibition, 48 h
HT29 colon = tested on: HT29 colon
UACC-257 melanoma = tested on: UACC-257 melanoma
HCT-15 colon = tested on: HCT-15 colon
CAKI-1 renal = tested on: CAKI-1 renal
OVCAR-8 ovarian = tested on: OVCAR-8 ovarian
HCT-116 colon = tested on: HCT-116 colon
IGROV1 ovarian = tested on: IGROV1 ovarian
SF-268 CNS = tested on: SF-268 CNS
NCI-H23 lung = tested on: NCI-H23 lung
M19-MEL melanoma = tested on: M19-MEL melanoma
HCC-2998 colon = tested on: HCC-2998 colon
OVCAR-3 ovarian = tested on: OVCAR-3 ovarian
786-0 renal = tested on: 786-0 renal
KM12 colon = tested on: KM12 colon
RPMI-8226 leukemia = tested on: RPMI-8226 leukemia
M14 melanoma = tested on: M14 melanoma
SNB-78 CNS = tested on: SNB-78 CNS
DMS 114 small cell lung = tested on: DMS 114 small cell lung
HOP-18 NSCLC = tested on: HOP-18 NSCLC
EKVX NSCLC = tested on: EKVX NSCLC
NCI-H460 lung = tested on: NCI-H460 lung
U251 CNS = tested on: U251 CNS
SF-295 CNS = tested on: SF-295 CNS
DMS 273 small cell lung = tested on: DMS 273 small cell lung
RXF 393 renal = tested on: RXF 393 renal
SNB-75 CNS = tested on: SNB-75 CNS
SW-620 colon = tested on: SW-620 colon
LXFL 529 NSCLC = tested on: LXFL 529 NSCLC
HOP-92 NSCLC = tested on: HOP-92 NSCLC
DLD-1 colon = tested on: DLD-1 colon
CCRF-CEM leukemia = tested on: CCRF-CEM leukemia
SN12C renal = tested on: SN12C renal
HOP-62 NSCLC = tested on: HOP-62 NSCLC
NCI-H522 lung = tested on: NCI-H522 lung
K-562 leukemia = tested on: K-562 leukemia
COLO 205 colon = tested on: COLO 205 colon
MALME-3M melanoma = tested on: MALME-3M melanoma
ACHN renal = tested on: ACHN renal
A498 renal = tested on: A498 renal
XF 498 CNS = tested on: XF 498 CNS
SK-MEL-2 melanoma = tested on: SK-MEL-2 melanoma
SNB-19 CNS = tested on: SNB-19 CNS
KM20L2 colon = tested on: KM20L2 colon
NCI-H226 lung = tested on: NCI-H226 lung
UO-31 renal = tested on: UO-31 renal
OVCAR-5 ovarian = tested on: OVCAR-5 ovarian
SK-OV-3 ovarian = tested on: SK-OV-3 ovarian
LOX IMVI melanoma = tested on: LOX IMVI melanoma
UACC-62 melanoma = tested on: UACC-62 melanoma
HL-60(TB) leukemia = tested on: HL-60(TB) leukemia
MOLT-4 leukemia = tested on: MOLT-4 leukemia
SK-MEL-5 melanoma = tested on: SK-MEL-5 melanoma
SK-MEL-28 melanoma = tested on: SK-MEL-28 melanoma
TK-10 renal = tested on: TK-10 renal
OVCAR-4 ovarian = tested on: OVCAR-4 ovarian
A549 NSCLC = tested on: A549 NSCLC
SF-539 CNS = tested on: SF-539 CNS
RXF-631 renal = tested on: RXF-631 renal
SR leukemia = tested on: SR leukemia

For Brc1cccc(C=NC23CC4CC(CC(C4)C2)C3)c1, the TGI (HT29 colon) was greater than 100 µM, the TGI (UACC-257 melanoma) was greater than 100 µM and the TGI (HCT-15 colon) was greater than 100 µM. It also gave a TGI (CAKI-1 renal) greater than 100 µM, a TGI (OVCAR-8 ovarian) greater than 100 µM and a TGI (HCT-116 colon) greater than 100 µM. For the same molecule, the TGI (IGROV1 ovarian) was greater than 100 µM, the TGI (SF-268 CNS) was greater than 100 µM and the TGI (NCI-H23 lung) was greater than 100 µM. The TGI (M19-MEL melanoma) was greater than 100 µM, the TGI (HCC-2998 colon) was greater than 100 µM and the TGI (OVCAR-3 ovarian) was greater than 100 µM. The TGI (786-0 renal) was greater than 100 µM, the TGI (KM12 colon) was greater than 100 µM and the TGI (RPMI-8226 leukemia) was greater than 100000 nM. For the same molecule, the TGI (M14 melanoma) was greater than 100 µM, the TGI (SNB-78 CNS) was greater than 100 µM and the TGI (DMS 114 small cell lung) was greater than 100 µM. It also gave a TGI (HOP-18 NSCLC) greater than 100 µM, a TGI (EKVX NSCLC) greater than 100 µM and a TGI (NCI-H460 lung) greater than 100 µM. It also gave a TGI (U251 CNS) greater than 100 µM, a TGI (SF-295 CNS) greater than 100 µM and a TGI (DMS 273 small cell lung) greater than 100 µM. For the same molecule, the TGI (RXF 393 renal) was greater than 100 µM, the TGI (SNB-75 CNS) was greater than 100 µM and the TGI (SW-620 colon) was greater than 100 µM. It also gave a TGI (LXFL 529 NSCLC) greater than 100 µM, a TGI (HOP-92 NSCLC) greater than 100 µM and a TGI (DLD-1 colon) greater than 100 µM. The TGI (CCRF-CEM leukemia) was greater than 100 µM, the TGI (SN12C renal) was greater than 100 µM and the TGI (HOP-62 NSCLC) was greater than 100 µM. It also gave a TGI (NCI-H522 lung) greater than 100 µM, a TGI (K-562 leukemia) greater than 100 µM and a TGI (COLO 205 colon) greater than 100 µM. The TGI (MALME-3M melanoma) was greater than 100 µM, the TGI (ACHN renal) was greater than 100 µM and the TGI (A498 renal) was greater than 100 µM. For the same molecule, the TGI (XF 498 CNS) was greater than 100 µM, the TGI (SK-MEL-2 melanoma) was greater than 100 µM and the TGI (SNB-19 CNS) was greater than 100 µM. For the same molecule, the TGI (KM20L2 colon) was greater than 100 µM, the TGI (NCI-H226 lung) was greater than 100 µM and the TGI (UO-31 renal) was greater than 100 µM. It also gave a TGI (OVCAR-5 ovarian) greater than 100 µM, a TGI (SK-OV-3 ovarian) greater than 100 µM and a TGI (LOX IMVI melanoma) greater than 100 µM. For the same molecule, the TGI (UACC-62 melanoma) was greater than 100 µM, the TGI (HL-60(TB) leukemia) was greater than 100 µM and the TGI (MOLT-4 leukemia) was greater than 100 µM. The TGI (SK-MEL-5 melanoma) was greater than 100 µM, the TGI (SK-MEL-28 melanoma) was greater than 100 µM and the TGI (TK-10 renal) was greater than 100 µM. The TGI (OVCAR-4 ovarian) was greater than 100 µM, the TGI (A549 NSCLC) was greater than 100 µM and the TGI (SF-539 CNS) was greater than 100 µM.
In the case of NC(CCC(=O)NC(CSSCCCCS(=O)O)C(=O)NCC(=O)O)C(=O)O (stereo not drawn), the TGI (HT29 colon) is reported as greater than 100 µM, the TGI (UACC-257 melanoma) is reported as greater than 100 µM and the TGI (HCT-15 colon) is reported as greater than 100 µM. The TGI (CAKI-1 renal) was greater than 100 µM, the TGI (OVCAR-8 ovarian) was greater than 100 µM and the TGI (HCT-116 colon) was greater than 100 µM. The TGI (IGROV1 ovarian) was greater than 100 µM, the TGI (SF-268 CNS) was greater than 100 µM and the TGI (NCI-H23 lung) was greater than 100 µM. The TGI (M19-MEL melanoma) was greater than 100 µM, the TGI (HCC-2998 colon) was greater than 100 µM and the TGI (OVCAR-3 ovarian) was greater than 100 µM. The TGI (786-0 renal) was greater than 100 µM, the TGI (KM12 colon) was greater than 100 µM and the TGI (M14 melanoma) was greater than 100 µM. The TGI (SNB-78 CNS) was greater than 100 µM, the TGI (DMS 114 small cell lung) was greater than 100 µM and the TGI (HOP-18 NSCLC) was greater than 100 µM. It also gave a TGI (EKVX NSCLC) greater than 100 µM, a TGI (NCI-H460 lung) greater than 100 µM and a TGI (U251 CNS) greater than 100 µM. It also gave a TGI (SF-295 CNS) greater than 100 µM, a TGI (DMS 273 small cell lung) greater than 100 µM and a TGI (RXF 393 renal) greater than 100 µM. It also gave a TGI (SNB-75 CNS) greater than 100 µM, a TGI (SW-620 colon) greater than 100 µM and a TGI (LXFL 529 NSCLC) greater than 100 µM. For the same molecule, the TGI (DLD-1 colon) was greater than 100 µM, the TGI (CCRF-CEM leukemia) was greater than 100 µM and the TGI (SN12C renal) was greater than 100 µM. The TGI (HOP-62 NSCLC) was greater than 100 µM, the TGI (NCI-H522 lung) was greater than 100 µM and the TGI (K-562 leukemia) was greater than 100 µM. The TGI (COLO 205 colon) was greater than 100 µM, the TGI (MALME-3M melanoma) was greater than 100 µM and the TGI (ACHN renal) was greater than 100 µM. The TGI (A498 renal) was greater than 100 µM, the TGI (XF 498 CNS) was greater than 100 µM and the TGI (SK-MEL-2 melanoma) was greater than 100 µM. It also gave a TGI (SNB-19 CNS) greater than 100 µM, a TGI (KM20L2 colon) greater than 100 µM and a TGI (UO-31 renal) greater than 100 µM. It also gave a TGI (OVCAR-5 ovarian) greater than 100 µM, a TGI (SK-OV-3 ovarian) greater than 100 µM and a TGI (LOX IMVI melanoma) greater than 100 µM. For the same molecule, the TGI (UACC-62 melanoma) was greater than 100 µM, the TGI (RXF-631 renal) was greater than 100 µM and the TGI (MOLT-4 leukemia) was greater than 100 µM. The TGI (SK-MEL-5 melanoma) was greater than 100 µM, the TGI (SK-MEL-28 melanoma) was greater than 100 µM and the TGI (TK-10 renal) was greater than 100 µM. The TGI (OVCAR-4 ovarian) was greater than 100 µM, the TGI (A549 NSCLC) was greater than 100 µM and the TGI (SF-539 CNS) was greater than 100 µM.
O=C1/C(=C/c2ccccc2)CNC/C1=C\c1ccccc1 was tested, and the TGI (SR leukemia) was 536 nM, the TGI (HT29 colon) was 3.13 µM and the TGI (UACC-257 melanoma) was 10.6 µM. For the same molecule, the TGI (HCT-15 colon) was 2.76 µM, the TGI (CAKI-1 renal) was 17.6 µM and the TGI (OVCAR-8 ovarian) was 5.88 µM. The TGI (HCT-116 colon) was 0.415 µM, the TGI (IGROV1 ovarian) was 3.63 µM and the TGI (SF-268 CNS) was 9.34 µM. The TGI (NCI-H23 lung) was 4.27 µM, the TGI (M19-MEL melanoma) was 2.72 µM and the TGI (HCC-2998 colon) was 3.33 µM. The TGI (OVCAR-3 ovarian) was 3.09 µM, the TGI (786-0 renal) was 2.93 µM and the TGI (KM12 colon) was 2.66 µM. It also gave a TGI (RPMI-8226 leukemia) of 787 nM, a TGI (M14 melanoma) of 3.56 µM and a TGI (SNB-78 CNS) of 41.8 µM. It also gave a TGI (DMS 114 small cell lung) of 8.36 µM, a TGI (HOP-18 NSCLC) of 22.9 µM and a TGI (EKVX NSCLC) of 16.5 µM. For the same molecule, the TGI (NCI-H460 lung) was 3.08 µM, the TGI (U251 CNS) was 1.37 µM and the TGI (SF-295 CNS) was 5.25 µM. It also gave a TGI (DMS 273 small cell lung) of 2 µM, a TGI (SNB-75 CNS) of 11.6 µM and a TGI (SW-620 colon) of 2.11 µM. For the same molecule, the TGI (LXFL 529 NSCLC) was 3.58 µM, the TGI (HOP-92 NSCLC) was 22.1 µM and the TGI (DLD-1 colon) was 1.08 µM. For the same molecule, the TGI (CCRF-CEM leukemia) was greater than 25.5 µM, the TGI (SN12C renal) was 3.28 µM and the TGI (HOP-62 NSCLC) was 7.46 µM. For the same molecule, the TGI (NCI-H522 lung) was 2.66 µM, the TGI (K-562 leukemia) was greater than 23.8 µM and the TGI (COLO 205 colon) was 3.11 µM. The TGI (MALME-3M melanoma) was 9.3 µM, the TGI (ACHN renal) was 4.37 µM and the TGI (A498 renal) was 4.57 µM. For the same molecule, the TGI (XF 498 CNS) was 6.41 µM, the TGI (SK-MEL-2 melanoma) was 9.18 µM and the TGI (SNB-19 CNS) was 11.9 µM. It also gave a TGI (KM20L2 colon) of 3.09 µM, a TGI (NCI-H226 lung) of 6.18 µM and a TGI (UO-31 renal) of 3.87 µM. The TGI (OVCAR-5 ovarian) was 6.21 µM, the TGI (SK-OV-3 ovarian) was 6.36 µM and the TGI (LOX IMVI melanoma) was 2.05 µM. It also gave a TGI (UACC-62 melanoma) of 3.69 µM, a TGI (RXF-631 renal) of 13 µM and a TGI (MOLT-4 leukemia) of 3.36 µM. For the same molecule, the TGI (SK-MEL-5 melanoma) was 4.07 µM, the TGI (SK-MEL-28 melanoma) was 3.9 µM and the TGI (TK-10 renal) was 7.61 µM. The TGI (OVCAR-4 ovarian) was 2.9 µM, the TGI (A549 NSCLC) was 7.63 µM and the TGI (SF-539 CNS) was 3.46 µM.
